Assay results published in US9580432B2, “Fused pyrimidine compound or salt thereof” (TAIHO PHARMACEUTICAL CO., LTD., priority 2013, dated 2017).

What was measured:
[1] = test system: purified recombinant human EGFR protein / BTK; assay: BTK inhibition selectivity compared with EGFR kinase inhibitory activity (in vitro); format: biochemical; conditions: EGFR assay ATP 1.5 μM
Protocol: 1) Measurement of BTK Inhibitory Activity
2) Measurement of EGFR Inhibitory Activity
Therefore, a biotinated peptide (biotin-[…]) was produced by referring to the amino acid sequence of the peptide. The purified recombinant human EGFR protein used in the test was purchased from Carna Biosciences, Inc.
With regard to the measurement of the inhibitory activity of the compounds, firstly, the compounds of the present invention were diluted stepwise with dimethyl sulfoxide (DMSO). […] The reaction was terminated by adding EDTA thereto in order to obtain a final concentration of 24 mM. Subsequently, a detection liquid containing Eu-labeled anti-phosphorylated tyrosine antibody PT66 (PerkinElmer, Inc.) and […] APC-SA (PerkinElmer, Inc.) was added thereto, and the system was left to stand for 2 hours or longer at room temperature.
3) BTK Inhibition Selectivity

[2] = test system: A431 cells / TMD8 cells; assay: Proliferation inhibitory activity against cell lines expressing BTK and EGFR (in vitro), comparison of selectivity; format: cell-based, human; conditions: ratio from GI50 (nM), 3 days culture, CELLTITER GLO
Text: TMD8 cells, which are of a diffuse large B-cell lymphoma cell line expressing BTK, were suspended in RPMI1640 medium (manufactured by Life Technologies Corp.) containing 10% fetal bovine serum. A431 cells, which are of an EGFR-overexpressing, highly activated human epidermoid carcinoma cell line, were suspended in DMEM, high glucose medium (manufactured by Life Technologies Corp.) containing 10% fetal bovine serum. The cell suspensions were inoculated into each well of 384-well flat-bottomed microplates, and the cells were cultured for 1 day at 37° C. in an incubator containing 5% carbon dioxide gas. […] A DMSO solution of the test compounds was diluted with the medium used in the suspension of the each cells, and this was added to each of the wells of the cell culture plates such that the final concentration of DMSO would be 0.2%. The cells were further cultured for 3 days at 37° C. in an incubator containing 5% carbon dioxide gas. […] Proliferation inhibition ratio (%)=(C−T)/(C−C0)×100
T: Luminescence intensity of a well in which the test compound was added
C: Luminescence intensity of a well in which the test compound was not added
C0: Luminescence intensity of a well measured before the addition of the test compound
When a comparison is made between the cell proliferation inhibitory activity against A431 cells that depends on the EGFR proliferation signaling and the cell proliferation inhibitory activity against TMD8 cells that depends on the BTK proliferation signaling, the influence of the respective kinases at a cellular level is able to be evaluated. That is, when the “A431 cell proliferation inhibition ratio/TMD8 cell proliferation inhibition ratio” is calculated, it is contemplated that as the value of the ratio is larger, the selectivity to BTK over EGFR in the cells is higher.

[3] = biological target: purified recombinant human BTK protein (Homo sapiens (Human), UniProt Q06187); assay: Measurement of BTK inhibitory activity (in vitro); format: biochemical; conditions: FL-PEPTIDE 2 substrate 1 μM, ATP 45 μM, 40 minutes at 25° C.
Text: With regard to the setting of the conditions for a method for measuring the inhibitory activity of a compound against BTK kinase activity in vitro, it is described in the consumable reagent supplies price list for LabChip (registered trademark) series of PerkinElmer, Inc. that FL-PEPTIDE 2 corresponds to a substrate peptide for the measurement of BTK kinase activity. Therefore, FL-PEPTIDE 2 was used as a substrate. The purified recombinant human BTK protein used in the test was purchased from Carna Biosciences, Inc.
With regard to the measurement of the inhibitory activity of the compounds, firstly, the compounds of the present invention were diluted stepwise with dimethyl sulfoxide (DMSO). Subsequently, BTK protein, a substrate peptide (final concentration was 1 μM), magnesium chloride (final concentration was 10 mM), ATP (final concentration was 45 μM), and a DMSO solution of the compounds of the present invention (final concentration of DMSO was 5%) were added to a buffer solution for kinase reaction (20 mM HEPES (pH 7.5), 2 mM dithiotheitol, 0.01% Triton X-100), and after the solution was incubated for 40 minutes at 25° C., a kinase reaction was carried out. The reaction was terminated by adding EDTA thereto in order to obtain a final concentration of 30 mM. Finally, a substrate peptide that was not phosphorylated (S) and a phosphorylated peptide (P) were separated and detected by microchannel capillary electrophoresis using a LabChip EZ Reader II (PerkinElmer, Inc.).

purified recombinant human BTK protein, sequence (Q06187 whole entry): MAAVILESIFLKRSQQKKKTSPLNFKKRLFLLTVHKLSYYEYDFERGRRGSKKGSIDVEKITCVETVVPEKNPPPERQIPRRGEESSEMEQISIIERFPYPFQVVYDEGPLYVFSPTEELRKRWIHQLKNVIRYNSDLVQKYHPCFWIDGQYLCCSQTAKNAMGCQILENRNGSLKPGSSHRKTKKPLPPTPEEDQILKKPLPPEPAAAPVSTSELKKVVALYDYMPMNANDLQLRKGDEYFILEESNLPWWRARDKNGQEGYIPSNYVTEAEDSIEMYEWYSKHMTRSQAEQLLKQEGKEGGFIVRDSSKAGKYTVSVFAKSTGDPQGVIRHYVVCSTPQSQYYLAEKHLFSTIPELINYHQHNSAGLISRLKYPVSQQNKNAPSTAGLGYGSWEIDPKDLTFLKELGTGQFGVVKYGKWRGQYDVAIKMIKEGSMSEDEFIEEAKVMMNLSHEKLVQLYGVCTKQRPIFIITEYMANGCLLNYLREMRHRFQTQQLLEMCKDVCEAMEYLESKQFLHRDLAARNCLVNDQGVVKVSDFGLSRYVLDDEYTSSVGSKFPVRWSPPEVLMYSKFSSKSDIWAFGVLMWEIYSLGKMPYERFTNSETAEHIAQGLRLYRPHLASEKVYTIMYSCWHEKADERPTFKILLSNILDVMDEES

Row | Compound | EGFR inhibitory activity IC50 value (nM)/BTK inhibitory activity IC50 value (nM) [1] | A431 cell proliferation inhibition ratio/TMD8 cell proliferation inhibitio ratio [2] | IC50 [3] [nM]
1 | C=CC(=O)N1CCC(n2nc(C(=O)Nc3nc4ccccc4o3)c3c(N)ncnc32)C1 (stereo not shown) [Example 82, 1-(1-acryloylpyrrolidin-3-yl)-4-amino-N-(benzo[d]oxazol-2-yl)-1H-pyrazolo[3,4-d]pyrimidine-3-carboxamide] | 10.9 | 8143.0 | 
2 | Nc1ncnc2c1c(C(=O)Nc1nc3cc(Cl)ccc3o1)nn2[C@@H]1CCN(C(=O)/C=C/CN2CCCC2)C1 [Example 36, (R,E)-4-amino-N-(5-chlorobenzo[d]oxazol-2-yl)-1-(1-(4-(pyrrolidin-1-yl)but-2-enoyl)pyrrolidin-3-yl)-1H-pyrazolo[3,4-d]pyrimidine-3-carboxamide] | 59.8 |  | 0.867
3 | (E)-4-amino-N-(5-chlorobenzo[d]oxazol-2-yl)-7-(1-(4-(dimethylamino)but-2-enoyl)azetidin-3-yl) 7H-pyrrolo[2,3-d]pyrimidine-5-carboxamide [Example 47] | 20.4 |  | 7.34
4 | C=CC(=O)N1CC(Cn2nc(C(=O)Nc3nc4cc(F)ccc4o3)c3c(N)ncnc32)C1 [Example 75, 1-((1-acryloylazetidin-3-yl)methyl)-4-amino-N-(5-fluorobenzo[d]oxazol-2-yl)-1H-pyrazolo[3,4-d]pyrimidine-3-carboxamide] | 58.2 | >1643.7 | 
5 | Nc1ncnc2c1c(C(=O)Nc1nc3cc(-c4ccccc4)ccc3o1)cn2[C@@H]1CCN(C(=O)/C=C/CN2CCCCC2)C1 [Example 61, (R,E)-4-amino-N-(5-phenylbenzo[d]oxazol-2-yl)-7-(1-(4-(piperidin-1-yl)but-2-enoyl)pyrrolidin-3-yl) 7H-pyrrolo[2,3-d]pyrimidine-5-carboxamide] | 67.5 |  | 2.34
6 | C=CC(=O)N[C@H]1CC[C@@H](n2nc(C(=O)Nc3nc4cc(Cl)ccc4o3)c3c(N)ncnc32)CC1 [Example 78, 1-((1S,4S)-4-acrylamidocyclohexyl)-4-amino-N-(5-chlorobenzo[d]oxazol-2-yl)-1H-pyrazolo[3,4-d]pyrimidine-3-carboxamide] | 100.7 | >23596.7 | 
7 | C=CC(=O)NCCCn1nc(C(=O)Nc2nc3ccccc3o2)c2c(N)ncnc21 [Example 85, 1-(3-acrylamidopropyl)-4-amino-N-(benzo[d]oxazol-2-yl)-1H-pyrazolo[3,4-d]pyrimidine-3-carboxamide] | 11.0 |  | 
8 | C/C=C/C(=O)N1CCC[C@@H](n2nc(C(=O)Nc3nc4cc(Cl)ccc4o3)c3c(N)ncnc32)C1 [Example 5, (R,E)-4-amino-N-(5-chlorobenzo[d]oxazol-2-yl)-1-(1-(but-2-enoyl)piperidin-3-yl)-1H-pyrazolo[3,4-d]pyrimidine-3-carboxamide] | 241.0 |  | 1.25
9 | C=CC(=O)N1CC(Cn2nc(C(=O)Nc3nc4cc(Cl)ccc4o3)c3c(N)ncnc32)C1 [Example 76, 1-((1-acryloylazetidin-3-yl)methyl)-4-amino-N-(5-chlorobenzo[d]oxazol-2-yl)-1H-pyrazolo[3,4-d]pyrimidine-3-carboxamide] | 11.4 | >2345.8 | 
10 | C=C(C)C(=O)N1CCC[C@@H](n2nc(C(=O)Nc3nc4cc(Cl)ccc4o3)c3c(N)ncnc32)C1 [Example 4, (R)-4-amino-N-(5-chlorobenzo[d]oxazol-2-yl)-1-(1-methacryloylpiperidin-3-yl)-1H-pyrazolo[3,4-d]pyrimidine-3-carboxamide] | 929.2 |  | 0.888
11 | CCN(C)C/C=C/C(=O)N1CC[C@@H](n2cc(C(=O)Nc3nc4cc(-c5ccccc5)ccc4o3)c3c(N)ncnc32)C1 [Example 57, (R,E)-4-amino-N-(5-phenylbenzo[d]oxazol-2-yl)-7-(1-(4-(ethyl(methyl)amino)but-2-enoyl)pyrrolidin-3-yl) 7H-pyrrolo[2,3-d]pyrimidine-5-carboxamide] | 19.3 |  | 1.51
12 | Nc1ncnc2c1c(C(=O)Nc1nc3cc(Cl)ccc3o1)nn2[C@@H]1CCN(C(=O)/C=C/CN2CCCCC2)C1 [Example 37, (R,E)-4-amino-N-(5-chlorobenzo[d]oxazol-2-yl)-1-(1-(4-(piperidin-1-yl)but-2-enoyl)pyrrolidin-3-yl)-1H-pyrazolo[3,4-d]pyrimidine-3-carboxamide] | 70.5 |  | 0.786
13 | C=CC(=O)N1CC(n2nc(C(=O)Nc3nc4cc(F)ccc4o3)c3c(N)ncnc32)C1 [Example 79, 1-(1-acryloylazetidin-3-yl)-4-amino-N-(5-fluorobenzo[d]oxazol-2-yl)-1H-pyrazolo[3,4-d]pyrimidine-3-carboxamide] | 20.6 |  | 
14 | Nc1ncnc2c1c(C(=O)Nc1nc3cc(-c4ccccc4)ccc3o1)cn2[C@@H]1CCN(C(=O)/C=C/CN2CCCC2)C1 [Example 60, (R,E)-4-amino-N-(5-phenylbenzo[d]oxazol-2-yl)-7-(1-(4-(pyrrolidin-1-yl)but-2-enoyl)pyrrolidin-3-yl) 7H-pyrrolo[2,3-d]pyrimidine-5-carboxamide] | 32.4 |  | 1.88
15 | CC(C)=CC(=O)N1CC[C@@H](n2nc(C(=O)Nc3nc4cc(Cl)ccc4o3)c3c(N)ncnc32)C1 [Example 26, (R,E)-4-amino-N-(5-chlorobenzo[d]oxazol-2-yl)-1-(1-(3-methylbut-2-enoyl)pyrrolidin-3-yl)-1H-pyrazolo[3,4-d]pyrimidine-3-carboxamide] | 642.8 |  | 2.79
16 | CN(C)C/C=C/C(=O)N1CC[C@H](n2nc(C(=O)Nc3nc4ccccc4o3)c3c(N)ncnc32)C1 [Example 73, (S,E)-4-amino-N-(benzo[d]oxazol-2-yl)-1-(1-(4-(dimethylamino)but-2-enoyl)pyrrolidin-3-yl)-1H-pyrazolo[3,4-d]pyrimidine-3-carboxamide] | 11.2 |  | 259
17 | CC(C)N(C)C/C=C/C(=O)N1CC[C@@H](n2cc(C(=O)Nc3nc4cc(-c5ccccc5)ccc4o3)c3c(N)ncnc32)C1 [Example 59, (R,E)-4-amino-N-(5-phenylbenzo[d]oxazol-2-yl)-7-(1-(4-(isopropyl(methyl)amino)but-2-enoyl)pyrrolidin-3-yl) 7H-pyrrolo[2,3-d]pyrimidine-5-carboxamide] | 16.3 |  | 1.51
18 | CN(C)C/C=C/C(=O)N1CC[C@@H](n2cc(C(=O)Nc3nc4cc(-c5ccccc5)ccc4o3)c3c(N)ncnc32)C1 [Example 56, (R,E)-4-amino-N-(5-phenylbenzo[d]oxazol-2-yl)-7-(1-(4-(dimethylamino)but-2-enoyl)pyrrolidin-3-yl) 7H-pyrrolo[2,3-d]pyrimidine-5-carboxamide] | 17.6 |  | 1.34
